ChEMBL document CHEMBL1201862, “PubChem BioAssay data set” (2004)
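Cultured in 96-well plates, cells were exposed to test compound for 48 hours across five concentrations. GI50 = concentration required for 50% inhibition of growth.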 Calls of active or inactive are those of the source. Rule as the data show it: active = GI50 up to about 1.1 µM and inactive = higher.

Legend:
Assay in all cases: NCI tumour cell line growth inhibition, 48 h
A549 = system: A549
K562 = system: K562
M14 = system: M14
MDA-N = system: MDA-N
NCI/ADR-RES = system: NCI/ADR-RES
OVCAR-4 = system: OVCAR-4
OVCAR-5 = system: OVCAR-5
RPMI-8226 = system: RPMI-8226
SK-MEL-5 = system: SK-MEL-5
SK-OV-3 = system: SK-OV-3
SN12C = system: SN12C
SR = system: SR
T47D = system: T47D
U-251 = system: U-251
UACC-257 = system: UACC-257
UACC-62 = system: UACC-62
HCC 2998 = system: HCC 2998
Hs-578T = system: Hs-578T
CCRF-CEM = system: CCRF-CEM

| Compound | GI50 (A549) | GI50 (K562) | GI50 (M14) | GI50 (MDA-N) | GI50 (NCI/ADR-RES) | GI50 (OVCAR-4) | GI50 (OVCAR-5) | GI50 (RPMI-8226) | GI50 (SK-MEL-5) | GI50 (SK-OV-3) | GI50 (SN12C) | GI50 (SR) | GI50 (T47D) | GI50 (U-251) | GI50 (UACC-257) | GI50 (UACC-62) | GI50 (HCC 2998) | GI50 (Hs-578T) | GI50 (CCRF-CEM) |
| --- | --- | --- | --- | --- | --- | --- | --- | --- | --- | --- | --- | --- | --- | --- | --- | --- | --- | --- | --- |
| N#Cc1c(Cl)cccc1Oc1ccc(S(=O)(=O)/N=C(\NN)Nc2ccc(Cl)cc2)cc1 | 31.9 µM (inactive) | 34.8 µM (inactive) | 22.9 µM (inactive) | 25.5 µM (inactive) | 32.9 µM (inactive) | 26.4 µM (inactive) | 28.5 µM (inactive) | 32.5 µM (inactive) | 17.1 µM (inactive) | 32.3 µM (inactive) | 25.2 µM (inactive) | 0.0177 µM (active) | 20.1 µM (inactive) | 32 µM (inactive) | 29.9 µM (inactive) | 19.1 µM (inactive) | – | – | – |
| CCOC(=O)c1c(N)sc2c1C(C)(C(=O)OCC)CC2 (configuration not stated) | 63.1 µM (inactive) | > 100 µM (inactive) | > 100 µM (inactive) | > 100 µM (inactive) | – | – | > 100 µM (inactive) | 78.5 µM (inactive) | > 100 µM (inactive) | – | > 100 µM (inactive) | 92.7 µM (inactive) | – | > 100 µM (inactive) | > 100 µM (inactive) | > 100 µM (inactive) | > 100 µM (inactive) | 78.7 µM (inactive) | – |
| CC(=O)O[C@@H]1CC[C@@]2(C)C(CC[C@H]3[C@@H]4CC[C@H]([C@H](C)CCc5nc6cc(C)ccc6[nH]5)[C@@]4(C)CC[C@@H]32)C1 (some centres not stated) | 43.4 µM (inactive) | 12.6 µM (inactive) | 16.1 µM (inactive) | – | 97.3 µM (inactive) | 9.77 µM (inactive) | > 100 µM (inactive) | 8.89 µM (inactive) | 25.9 µM (inactive) | > 100 µM (inactive) | 41.5 µM (inactive) | – | 0.0352 µM (active) | 18.2 µM (inactive) | 38.7 µM (inactive) | 11.5 µM (inactive) | 71.3 µM (inactive) | 13.9 µM (inactive) | 3.44 µM (inactive) |
| C=C(C)[C@@H]1C[C@H]2O[C@](O)(C(=C)CC(=O)/C=C(/C)C[C@@H]3OC(=O)[C@]24O[C@@H]34)[C@H]1O | > 100 µM (inactive) | > 100 µM (inactive) | > 100 µM (inactive) | > 100 µM (inactive) | > 100 µM (inactive) | > 100 µM (inactive) | > 100 µM (inactive) | > 100 µM (inactive) | > 100 µM (inactive) | > 100 µM (inactive) | > 100 µM (inactive) | > 100 µM (inactive) | > 100 µM (inactive) | > 100 µM (inactive) | > 100 µM (inactive) | > 100 µM (inactive) | > 100 µM (inactive) | – | > 100 µM (inactive) |
| N#Cc1nc(-c2ccccc2O)oc1N | 63.5 µM (inactive) | 29.9 µM (inactive) | > 100 µM (inactive) | > 100 µM (inactive) | – | – | > 100 µM (inactive) | 20.4 µM (inactive) | 61.4 µM (inactive) | > 100 µM (inactive) | 81.1 µM (inactive) | – | – | > 100 µM (inactive) | > 100 µM (inactive) | 95.9 µM (inactive) | – | 40.9 µM (inactive) | 16.4 µM (inactive) |
| CC(C)OC1=C(CC2(C)OCCO2)C(=O)C12OCCO2 | > 100 µM (inactive) | – | > 100 µM (inactive) | – | > 100 µM (inactive) | > 100 µM (inactive) | > 100 µM (inactive) | – | > 100 µM (inactive) | > 100 µM (inactive) | > 100 µM (inactive) | – | > 100 µM (inactive) | > 100 µM (inactive) | > 100 µM (inactive) | > 100 µM (inactive) | – | > 100 µM (inactive) | > 100 µM (inactive) |
| COC(=O)C1=C(OC)[C@H]2C#C/C=C\C#C[C@@H]3Nc4c(cc(O)c5c4C(=O)c4ccccc4C5=O)[C@]24O[C@@]34[C@H]1C | < 0.01 µM (active) | < 0.01 µM (active) | < 0.01 µM (active) | < 0.01 µM (active) | < 0.01 µM (active) | 0.0519 µM (active) | < 0.01 µM (active) | < 0.01 µM (active) | < 0.01 µM (active) | < 0.01 µM (active) | < 0.01 µM (active) | < 0.01 µM (active) | – | < 0.01 µM (active) | < 0.01 µM (active) | < 0.01 µM (active) | < 0.01 µM (active) | 0.173 µM (active) | < 0.01 µM (active) |
| CS(=O)(=O)OCCN(CCOS(C)(=O)=O)c1ccc(/C=N/c2cccc(Cl)c2)cc1 | 2.64 µM (inactive) | 23.5 µM (inactive) | 14.5 µM (inactive) | – | 3.61 µM (inactive) | 13.5 µM (inactive) | 2.95 µM (inactive) | 3.85 µM (inactive) | 6.43 µM (inactive) | 0.561 µM (active) | 1.4 µM (inactive) | 0.0537 µM (active) | 18.2 µM (inactive) | 3.72 µM (inactive) | 2.84 µM (inactive) | 1.5 µM (inactive) | 2.7 µM (inactive) | 26 µM (inactive) | 1.82 µM (inactive) |
| CCC(C)N1CN(c2ccccc2)C2(CCN(CC3COc4ccccc4O3)CC2)C1=O (configuration not stated) | 28.7 µM (inactive) | 16.5 µM (inactive) | 20.2 µM (inactive) | 25.6 µM (inactive) | 17.8 µM (inactive) | – | > 10 µM (inactive) | 13.3 µM (inactive) | 14.7 µM (inactive) | 33.6 µM (inactive) | 27.7 µM (inactive) | 17.9 µM (inactive) | 16 µM (inactive) | 17.7 µM (inactive) | 23.9 µM (inactive) | 19 µM (inactive) | 18.2 µM (inactive) | – | 19.9 µM (inactive) |
| CC1(C)OC[C@@H]([C@H](C=O)OCc2ccccc2)O1 | > 100 µM (inactive) | > 100 µM (inactive) | > 100 µM (inactive) | > 100 µM (inactive) | > 100 µM (inactive) | > 100 µM (inactive) | > 100 µM (inactive) | > 100 µM (inactive) | > 100 µM (inactive) | > 100 µM (inactive) | > 100 µM (inactive) | > 100 µM (inactive) | – | > 100 µM (inactive) | > 100 µM (inactive) | > 100 µM (inactive) | – | > 100 µM (inactive) | > 100 µM (inactive) |
| N#CC(C#N)=CNC(=S)Nc1ccc(S(=O)(=O)Nc2nccs2)cc1 | > 100 µM (inactive) | – | > 100 µM (inactive) | > 100 µM (inactive) | > 100 µM (inactive) | > 100 µM (inactive) | > 100 µM (inactive) | – | > 100 µM (inactive) | > 100 µM (inactive) | > 100 µM (inactive) | – | > 100 µM (inactive) | > 100 µM (inactive) | > 100 µM (inactive) | > 100 µM (inactive) | > 100 µM (inactive) | – | – |
| CC(=O)N(CCCCNC(=O)C(F)(F)F)CCCNC(=O)C(F)(F)F | > 100 µM (inactive) | > 100 µM (inactive) | > 100 µM (inactive) | – | > 100 µM (inactive) | > 100 µM (inactive) | > 100 µM (inactive) | > 100 µM (inactive) | > 100 µM (inactive) | > 100 µM (inactive) | > 100 µM (inactive) | > 100 µM (inactive) | > 100 µM (inactive) | > 100 µM (inactive) | > 100 µM (inactive) | > 100 µM (inactive) | > 100 µM (inactive) | > 100 µM (inactive) | > 100 µM (inactive) |
| Cc1c2ccccc2c(C2C3C(=O)N(c4ccc(Br)cc4)C(=O)C3ON2C(C(N)=O)c2ccccc2)c2ccccc12 (configuration not stated) | 3.64 µM (inactive) | 4.11 µM (inactive) | 5.69 µM (inactive) | 4.86 µM (inactive) | 4.39 µM (inactive) | 4.94 µM (inactive) | 5.6 µM (inactive) | 1.89 µM (inactive) | 3.1 µM (inactive) | 11.7 µM (inactive) | 5.3 µM (inactive) | – | 3.18 µM (inactive) | 2.69 µM (inactive) | 7.08 µM (inactive) | 9.35 µM (inactive) | 12.1 µM (inactive) | – | 3.18 µM (inactive) |
| COC(=O)c1ccc(OCCn2nnc(C(=O)NN)c2C(=O)NN)cc1 | > 100 µM (inactive) | > 100 µM (inactive) | > 100 µM (inactive) | > 100 µM (inactive) | > 100 µM (inactive) | > 100 µM (inactive) | > 100 µM (inactive) | > 100 µM (inactive) | > 100 µM (inactive) | – | > 100 µM (inactive) | > 100 µM (inactive) | – | > 100 µM (inactive) | > 100 µM (inactive) | – | > 100 µM (inactive) | – | > 100 µM (inactive) |
| Cc1ccc2c3c1O[C@H]1c4[nH]c5ccccc5c4C[C@@]4(O)[C@@H](C2)N(CC2CC2)CC[C@]314 | 14.7 µM (inactive) | 15.5 µM (inactive) | 16.8 µM (inactive) | 16.2 µM (inactive) | 19.1 µM (inactive) | 0.166 µM (active) | 18.7 µM (inactive) | 11.2 µM (inactive) | 14.1 µM (inactive) | 16.4 µM (inactive) | 15.3 µM (inactive) | 8.89 µM (inactive) | 17.6 µM (inactive) | 14.4 µM (inactive) | 16.7 µM (inactive) | 16 µM (inactive) | 3.78 µM (inactive) | – | 2.78 µM (inactive) |
| NN/C(=N\S(=O)(=O)c1cc(Cl)c(Oc2ccc([N+](=O)[O-])cc2Cl)c(Cl)c1)Nc1ccc(Cl)cc1 | 17.9 µM (inactive) | 27 µM (inactive) | 17.4 µM (inactive) | 17.8 µM (inactive) | 23.2 µM (inactive) | 17.9 µM (inactive) | 24.4 µM (inactive) | 31.8 µM (inactive) | 16 µM (inactive) | 44.7 µM (inactive) | 17.4 µM (inactive) | 16.6 µM (inactive) | 19.8 µM (inactive) | 16.2 µM (inactive) | 17.6 µM (inactive) | 15.5 µM (inactive) | – | – | 10.8 µM (inactive) |
